Results on one molecule are retold here after US20060247220A1, “Preventing the crystallization of cholesterol using oxysterols” (priority 2003, published 2006).

A short description of series [1]: Crystallization of cholesterol from solution in sunflower seed oil at room temperature. Type of series: physicochemical.
Experimental: Cholesterol was partially oxidized by heating in an oven with air at 80° C.
A 140 mg portion of the partially oxidized cholesterol was placed in a glass tube and 2.6 mL sunflower seed oil was added. The same amount of oil was added to tubes containing 60, 80, 100, 120 and 140 mg of pure cholesterol. All the tubes were held in a heating block at 95° C. until the sterols were dissolved. They were then held at room temperature (about 24° C.) for at least 3 weeks.
To determine the maximum solubilizing effect of the oxysterols, 35 mg and 70 mg of pure cholesterol were added to tubes containing 140 mg of the partially oxidized cholesterol, and 2.6 mL oil was added to each tube. The mixtures were brought into solution as described above, and held at room temperature.
The subject of series [2] is rabbits. The note with it: fed in diet; cited from earlier work.
The test system of series [3] is rabbits. Particulars: fed in diet; cited from earlier work. The source holds these as a separate data set.
Series [4] relates to rabbits. The note with it: in the diet, hydroperoxides added to cholesterol; cited from earlier work.

`CC(C)CCC[C@@H](C)[C@H]1CC[C@H]2[C@@H]3CC=C4C[C@@H](O)CC[C@]4(C)[C@H]3CC[C@]12C` [pure cholesterol, cholesterol]: the crystallization on standing entry in series [1] (60 mg pure cholesterol in 2.6 mL sunflower seed oil, room temperature) is on record as “crystallization did not occur”. In series [1] (80, 100, 120 and 140 mg pure cholesterol in 2.6 mL sunflower seed oil, room temperature (about 24° C.)), the “time to complete crystallization” value is “about 1 hour”. The atherosclerotic lesions result in the series on rabbits [2] is “both elevated serum cholesterol and lesions”. Besides, the atherogenicity entry in the series with rabbits [3] is “much more atherogenic to rabbits than oxysterols or a mixture of cholesterol and oxysterols”. For the same molecule, the “atheroma / lesion formation in the aortas” value with rabbits [4] is given as “extensive atheroma formation”.
